Target: T1, N-AGT enzyme (AGT-mGluR2 fusion protein) (Homo sapiens, UniProt P16455)
T1 construct: fused on or other part: type 2 metabotropic glutamate receptor (mGluR2)
Assay: Enzymatic reactivity test in a cell model, N-AGT mutant
Type: cell-based
Details: living cells, N-AGT mutant; labeling 1 h at 37° C.; read-out: half saturation concentration of the enzyme
Method: This procedure makes it possible to test the reactivity of substrates according to the invention with an AGT expressed by COS 7 cells in the form of a fusion protein with the type 2 glutamate transmembrane receptor (mGluR2).
Various mutants of AGT were analyzed in this study: SNAP-tag-ST26 or CLIP-tag from Covalys or the N-AGT mutant described by Gronemeyer et al. (Protein Engineering, Design & Selection, Vol. 19, No. 7, pp. 309-316, 2006).
The transient transfection of the cells is carried out by electroporation using a Biorad electroporator: 10 million cells are transfected by 1 μg SNAP-tag-mGluR2+3 μg pcdna3.1 in a final volume of 300 μl. The electroporation parameters are: 280 V & 1000 μF. […]
The labeling of the AGT-mGluR2 fusion protein takes place in 100 μl of complete medium with increasing concentrations of BG-fluorophore or BG-L1-A-L2-fluorophore according to the invention for 1 h at 37° C. Before the reading, 4 washing operations are carried out with 100 μl of Tris-Krebs.
For the substrates bearing fluorophores ATTO647 (example 2), DY647 (examples 1 and 5) and fluorescein-5-EX (example 3), the reading is carried out in 100 μl of Tris-Krebs in direct fluorescence at 682 nm on a Rubystar machine, and at 520 nm for those bearing fluorescein-5-EX (example 3). […]

T1 sequence (P16455 whole entry, looked up, the tested form may be a part): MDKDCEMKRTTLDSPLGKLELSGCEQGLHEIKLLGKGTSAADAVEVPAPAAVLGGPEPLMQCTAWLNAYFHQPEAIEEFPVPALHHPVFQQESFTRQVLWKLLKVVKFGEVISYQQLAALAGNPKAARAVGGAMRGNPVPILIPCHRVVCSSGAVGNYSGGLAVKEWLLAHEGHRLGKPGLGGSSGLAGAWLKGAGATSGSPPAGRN

Substance: Tb(KR)-methylbenzamide-BG [BG-methylbenzamide-Tb(KR)]
- EC50: 6.4 nM

Source: patent US9024022B2, “Substrates of O6-alkylguanine-DNA alkyltransferase and mutants thereof” (Cis Bio International, priority 2008, dated 2015)
